Where two headings read alike, the source gives them in different places.
Legend:
[1] = biological target: T1, DNA topoisomerase I (MtbTopoI) (Mycobacterium tuberculosis, UniProt P9WG49); assay type: biochemical
T1 construct: gene topA

[2] = biological target: T1, DNA topoisomerase I (MtbTopoI); experiment: […]; also inhibits cleavage of a 32-mer single-stranded DNA; assay type: biochemical

T1 sequence (P9WG49 whole entry): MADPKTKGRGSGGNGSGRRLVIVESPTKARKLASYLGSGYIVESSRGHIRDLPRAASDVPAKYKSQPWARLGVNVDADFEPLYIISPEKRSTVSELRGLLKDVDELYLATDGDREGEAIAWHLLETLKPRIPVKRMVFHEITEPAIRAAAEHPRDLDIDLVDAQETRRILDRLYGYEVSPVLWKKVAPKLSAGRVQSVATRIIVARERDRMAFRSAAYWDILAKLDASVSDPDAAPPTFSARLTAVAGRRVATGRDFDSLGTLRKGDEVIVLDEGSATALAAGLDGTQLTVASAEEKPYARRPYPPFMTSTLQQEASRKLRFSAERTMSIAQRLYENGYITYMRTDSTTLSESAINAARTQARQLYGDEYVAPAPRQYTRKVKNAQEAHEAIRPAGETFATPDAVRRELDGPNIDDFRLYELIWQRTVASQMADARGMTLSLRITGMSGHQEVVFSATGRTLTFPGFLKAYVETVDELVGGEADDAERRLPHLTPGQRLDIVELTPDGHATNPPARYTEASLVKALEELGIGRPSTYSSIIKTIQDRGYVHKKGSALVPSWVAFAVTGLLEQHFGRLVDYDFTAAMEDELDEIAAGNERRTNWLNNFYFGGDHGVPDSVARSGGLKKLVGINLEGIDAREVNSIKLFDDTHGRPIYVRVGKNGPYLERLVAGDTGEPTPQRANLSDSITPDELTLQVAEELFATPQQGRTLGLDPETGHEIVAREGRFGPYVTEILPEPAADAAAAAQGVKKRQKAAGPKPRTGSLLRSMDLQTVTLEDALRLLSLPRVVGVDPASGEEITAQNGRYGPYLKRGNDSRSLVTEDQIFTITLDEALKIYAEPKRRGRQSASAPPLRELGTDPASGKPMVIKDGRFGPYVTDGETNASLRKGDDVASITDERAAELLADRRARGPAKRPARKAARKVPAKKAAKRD

Structure (SMILES)	IC50 [1] [µM]	IC50 [2] [µM]
CN(C)CCc1cc2c(c3c1ccc1cc4c(cc13)OCO4)OCO2 [N-SCN, N-methyl-seconeolitsine]	5.6 ± 0.8	
CNCCc1cc2c(c3c1ccc1cc4c(cc13)OCO4)OCO2 [SCN, seconeolitsine]		8.4 ± 0.3
